# Experimental data published in paper PMC10572347, “Structure–Activity Relationships and Antiplasmodial Potencies of Novel 3,4-Disubstituted 1,2,5-Oxadiazoles” (International Journal of Molecular Sciences, 2023).
# Columns and labels:
# P. falciparum NF54 = test: In vitro microplate assay against P. falciparum (3H-hypoxanthine incorporation); format: cell-based, Plasmodium falciparum; settings: for S.I. = IC50 (Cyt.)/IC50 (P.f.NF54): L-6 cells vs P.f. NF54; for IC50: Plasmodium falciparum, NF54, chloroquine-sensitive strain NF54, average of four determinations, read-out: P.f. NF54 IC50
# Method: In vitro activity against the erythrocytic stages of P. falciparum was determined using a ^3H-hypoxanthine incorporation assay, using the drug sensitive NF54 strain [37]. […] The 96-well plates were incubated in a humidified atmosphere at 37 °C, 4% CO2, 3% O2 and 93% N2. After 48 h, 0.05 mL of ^3H-hypoxanthine (=0.5 µCi) was added to each well of the plate. The plates were incubated for a further 24 h under the same conditions. The plates were then harvested with a Betaplate cell harvester (Wallac, Zurich, Switzerland). The red blood cells were transferred onto a glass fiber filter and washed with distilled water. The dried filters were inserted into a plastic foil with 10 mL of scintillation fluid and counted in a Betaplate liquid scintillation counter (Wallac, Zurich, Switzerland). The IC50 values were calculated from sigmoidal inhibition curves by linear regression using Microsoft Excel. Chloroquine (Sigma C6628) was used as control.
# [1] = In vitro cytotoxicity with L-6 cells (resazurin); format: cell-based, rat; settings: rat
# Method: Serial drug dilutions of 11 3-fold dilution steps covering a range from 100 to 0.002 μg/mL were prepared. After 70 h of incubation, the plates were inspected under an inverted microscope to assure the growth of the controls and sterile conditions. […] The plates were read with a Spectramax Gemini XS microplate fluorometer (Molecular Devices Cooperation, Sunnyvale, CA, USA) using an excitation wavelength of 536 nm and an emission wavelength of 588 nm. The IC50 values were calculated by linear regression from the sigmoidal dose inhibition curves using SoftmaxPro software Version 8.2.1 (Molecular Devices Cooperation, Sunnyvale, CA, USA). Podophyllotoxin (Sigma P4405) was used as control.
# CYP3A4 = CYP3A4 (Homo sapiens, UniProt P08684); test: Cytochrome P450 3A4 inhibition assay (P450-Glo, Luciferin-IPA); settings: recombinant human CYP3A4 Supersomes (+ oxidoreductase + b5), pH 7.4, probe Luciferin-IPA
# Method: The CYP3A4 inhibition assay was performed using 96-well white plates (Greiner Bio-One) at a pH of 7.4. […] Stock solutions were further diluted to a final concentration of 20 µM using water (HPLC grade). The luciferin IPA stock solution (3 mM) was diluted to a final concentration of 0.3 mM using water (HPLC grade). The CYP3A4 reaction mixture was prepared by mixing water (HPLC grade) with potassium phosphate buffer (1 M), luciferin IPA (0.3 mM) and CYP3A4 membrane (1 pmol/µL). The control reaction mixture was prepared using water (HPLC grade), potassium phosphate buffer (1 M), luciferin IPA (0.3 mM) and membrane without CYP activity (1 pmol/µL). Solutions A and B of the NADPH regeneration system were mixed and HPLC grade water was added. The reconstituted luciferin detection reagent was prepared by mixing the reconstituted buffer with esterase with the luciferin detection reagent. Then, solutions of test compounds and standard were added to the wells of the 96-well white plate; each was tested in triplicate. The CYP3A4 reaction mixture was added to each well and the plate was incubated for 10 min at room temperature. After that, the NADPH regeneration system was added, inducing the reaction followed by an incubation time of 10 min at ambient temperature. By adding the reconstituted luciferin detection reagent, the reaction was terminated and a luminescent signal was formed. Luminescence was measured by a SpectraMax M3 UV plate reader (Molecular Devices). The relative light units (RLU) were received from a calibration curve with beetle luciferin. […] The CYP3A4 inhibition (%) was calculated from the RLU.
# CYP3A4, sequence (P08684 2-503 limits assumed): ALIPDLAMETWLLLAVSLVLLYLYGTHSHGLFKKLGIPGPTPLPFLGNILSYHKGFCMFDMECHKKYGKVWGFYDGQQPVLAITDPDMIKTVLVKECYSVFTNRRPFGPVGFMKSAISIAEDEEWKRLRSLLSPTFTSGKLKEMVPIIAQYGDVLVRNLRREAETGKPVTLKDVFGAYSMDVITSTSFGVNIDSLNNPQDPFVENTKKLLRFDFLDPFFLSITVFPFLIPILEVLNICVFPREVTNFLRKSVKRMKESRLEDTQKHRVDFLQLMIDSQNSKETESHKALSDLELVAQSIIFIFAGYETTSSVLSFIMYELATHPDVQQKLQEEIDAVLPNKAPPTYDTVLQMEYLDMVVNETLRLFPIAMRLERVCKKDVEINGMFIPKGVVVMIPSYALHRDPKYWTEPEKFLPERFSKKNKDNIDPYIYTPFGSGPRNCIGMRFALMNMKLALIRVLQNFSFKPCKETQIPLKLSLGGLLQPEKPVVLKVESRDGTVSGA
S.I. = IC50 (Cyt.)/IC50 (P.f.NF54) (P. falciparum NF54),IC50 (P. falciparum NF54) [µM],"inhibition at 10 min, 20 µM (CYP3A4) [%]",melting point [°C],Structure (SMILES),IC50 at 72 h [1] [µM]
6.694,1.81,46,208,"O=C(Nc1nonc1-c1ccc([N+](=O)[O-])cc1)c1ccccc1 [Compound 37, N-[4-(4-Nitrophenyl)-1,2,5-oxadiazol-3-yl]benzamide]",12.2
–,0.99,68,–,"Cc1cccc(C(=O)Nc2nonc2-c2ccc([N+](=O)[O-])cc2)c1 [Compound 38, 3-Methyl-N-[4-(4-nitrophenyl)-1,2,5-oxadiazol-3-yl]benzamide]",3.47
0.809,5.33,43,–,"O=C(Nc1nonc1-c1ccc([N+](=O)[O-])cc1)c1cccc(F)c1 [Compound 39, 3-Fluoro-N-[4-(4-nitrophenyl)-1,2,5-oxadiazol-3-yl]benzamide]",4.31
0.473,1.98,82,147,"O=C(Nc1nonc1-c1ccc([N+](=O)[O-])cc1)c1cccc(C(F)(F)F)c1 [Compound 40, N-[4-(4-Nitrophenyl)-1,2,5-oxadiazol-3-yl]-3-(trifluoromethyl)benzamide]",0.936
0.666,9.11,82,179,"O=C(Nc1nonc1-c1cccc([N+](=O)[O-])c1)c1ccccc1 [Compound 41, N-[4-(3-Nitrophenyl)-1,2,5-oxadiazol-3-yl]benzamide]",6.07
0.464,11.5,87,158,"Cc1cccc(C(=O)Nc2nonc2-c2cccc([N+](=O)[O-])c2)c1 [Compound 42, 3-Methyl-N-[4-(3-nitrophenyl)-1,2,5-oxadiazol-3-yl]benzamide]",5.32
0.104,26.7,79,174,"O=C(Nc1nonc1-c1cccc([N+](=O)[O-])c1)c1cccc(F)c1 [Compound 43, 3-Fluoro-N-[4-(3-nitrophenyl)-1,2,5-oxadiazol-3-yl]benzamide]",2.77
0.198,8.64,94,–,"O=C(Nc1nonc1-c1cccc([N+](=O)[O-])c1)c1cccc(C(F)(F)F)c1 [Compound 44, N-[4-(3-Nitrophenyl)-1,2,5-oxadiazol-3-yl]-3-(trifluoromethyl)benzamide]",1.71
1.000,11.2,60,169,"O=C(Nc1nonc1-c1ccc(F)cc1)c1cccc(F)c1 [Compound 45, 3-Fluoro-N-[4-(4-fluorophenyl)-1,2,5-oxadiazol-3-yl]benzamide]",11.2
15.54,8.73,57,165,"Cc1cccc(C(=O)Nc2nonc2-c2ccc(Cl)cc2)c1 [Compound 47, N-[4-(4-Chlorophenyl)-1,2,5-oxadiazol-3-yl]-3-methylbenzamide]",136
4.328,–,84,–,"Cc1cccc(C(=O)Nc2nonc2-c2ccc(F)cc2)c1 [Compound 49, N-[4-(4-Fluorophenyl)-1,2,5-oxadiazol-3-yl]-3-methylbenzamide]",35.1
1526,0.034,66,280,"CCOc1cc(-c2nonc2NC(=O)c2cccc(C)c2)ccc1OC [Compound 51, N-[4-(3-Ethoxy-4-methoxyphenyl)-1,2,5-oxadiazol-3-yl]-3-methylbenzamide]",51.9
